Measured values as given in ChEMBL document CHEMBL1201862, “PubChem BioAssay data set” (2004).
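Growth conditions: 96-well plates. Treatment: test compound, 48 hours, 5 concentrations. Analysis: linear interpolation between bracketing concentrations; unreached endpoints set to highest concentration. GI50: concentration for 50% inhibition of growth.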 Activity calls are given as the source filed them. Cut-off read from the data, not from the text of the source: active = GI50 up to about 1.1 µM and inactive = higher.

Legend:
Test in all cases: DTP human tumour cell line panel, 48 h
SW-620 = test system: SW-620
HT-29 = test system: HT-29
NCI-H23 = test system: NCI-H23
COLO 205 = test system: COLO 205
RPMI-8226 = test system: RPMI-8226
OVCAR-8 = test system: OVCAR-8
TK-10 = test system: TK-10
SK-MEL-2 = test system: SK-MEL-2
U-251 = test system: U-251
NCI-H460 = test system: NCI-H460
EKVX = test system: EKVX
K562 = test system: K562
Malme-3M = test system: Malme-3M
OVCAR-5 = test system: OVCAR-5
SNB-19 = test system: SNB-19
SK-MEL-28 = test system: SK-MEL-28
HOP-92 = test system: HOP-92
HCC 2998 = test system: HCC 2998

| Structure (SMILES) | GI50 (SW-620) | GI50 (HT-29) | GI50 (NCI-H23) | GI50 (COLO 205) | GI50 (RPMI-8226) | GI50 (OVCAR-8) | GI50 (TK-10) | GI50 (SK-MEL-2) | GI50 (U-251) | GI50 (NCI-H460) | GI50 (EKVX) | GI50 (K562) | GI50 (Malme-3M) | GI50 (OVCAR-5) | GI50 (SNB-19) | GI50 (SK-MEL-28) | GI50 (HOP-92) | GI50 (HCC 2998) |
| --- | --- | --- | --- | --- | --- | --- | --- | --- | --- | --- | --- | --- | --- | --- | --- | --- | --- | --- |
| O=C1C=CC=CC2CC=C[C@@H](O)C12 (some centres not stated) | 10.5 µM (inactive) | 16.8 µM (inactive) | > 10 µM (inactive) | 19.6 µM (inactive) | 3.41 µM (inactive) | 29.6 µM (inactive) | 32.4 µM (inactive) | 22.1 µM (inactive) | > 10 µM (inactive) | 18.4 µM (inactive) | 24.5 µM (inactive) | 26.5 µM (inactive) | 21.3 µM (inactive) | 30.5 µM (inactive) | 22.9 µM (inactive) |  |  |  |
| O=C1CCN2C(=O)CCN12 | > 100 µM (inactive) | > 100 µM (inactive) | > 100 µM (inactive) | > 100 µM (inactive) | > 100 µM (inactive) | > 100 µM (inactive) | > 100 µM (inactive) | > 100 µM (inactive) | > 100 µM (inactive) | > 100 µM (inactive) | > 100 µM (inactive) | > 100 µM (inactive) | > 100 µM (inactive) | > 100 µM (inactive) | > 100 µM (inactive) | > 100 µM (inactive) | > 100 µM (inactive) |  |
| [O-][n+]1c2cc(CN3CCOCC3)c(CN3CCOCC3)cc2[n+]([O-])c2c(O)cccc21 | 2.94 µM (inactive) | 3.91 µM (inactive) | 2.37 µM (inactive) | 5 µM (inactive) | 3.32 µM (inactive) | 2.48 µM (inactive) | > 20.4 µM (inactive) | 5.56 µM (inactive) | 3.25 µM (inactive) | 0.993 µM (active) | 6.53 µM (inactive) | 2.61 µM (inactive) | 8.73 µM (inactive) | 4.38 µM (inactive) | 9.44 µM (inactive) | 14 µM (inactive) | 2 µM (inactive) |  |
| CN(C)CCNC(=O)c1cccc2c(Nc3ccc(S(=O)(=O)N=C(N)N)cc3)c3ccccc3nc12 | 7.23 µM (inactive) | 16.3 µM (inactive) | 29 µM (inactive) | 9.04 µM (inactive) |  | 8.79 µM (inactive) | 75.9 µM (inactive) | 19.2 µM (inactive) | 8.36 µM (inactive) | 3.17 µM (inactive) | 20.6 µM (inactive) | 11.9 µM (inactive) |  | 28.4 µM (inactive) | 3.37 µM (inactive) | 24.5 µM (inactive) |  |  |
| COc1ccc2c(CCNC(C)=O)c(C(C)=O)[nH]c2c1 | > 100 µM (inactive) | > 100 µM (inactive) | > 10 µM (inactive) | > 100 µM (inactive) | > 100 µM (inactive) | > 100 µM (inactive) | > 100 µM (inactive) | > 100 µM (inactive) | > 100 µM (inactive) | > 100 µM (inactive) | > 100 µM (inactive) | > 100 µM (inactive) |  | > 100 µM (inactive) | > 100 µM (inactive) | > 100 µM (inactive) |  | > 100 µM (inactive) |
| CC1=C(C)C(=O)c2c(cc3ccc4ccccc4n23)C1=O | > 100 µM (inactive) | > 100 µM (inactive) | > 100 µM (inactive) | > 100 µM (inactive) | > 100 µM (inactive) | > 100 µM (inactive) | > 100 µM (inactive) |  | > 100 µM (inactive) | > 100 µM (inactive) | > 100 µM (inactive) | > 100 µM (inactive) | > 100 µM (inactive) | > 100 µM (inactive) | > 100 µM (inactive) | > 100 µM (inactive) |  | > 100 µM (inactive) |
| O=C1Nc2ccccc2/C1=N/NC(=O)c1ccccc1O | 46.8 µM (inactive) | 82.2 µM (inactive) | 24.5 µM (inactive) | > 100 µM (inactive) | 56.5 µM (inactive) | 44.5 µM (inactive) | 65.9 µM (inactive) | 23 µM (inactive) | 23.2 µM (inactive) | 34.8 µM (inactive) | 68.5 µM (inactive) | 40.9 µM (inactive) | 35.1 µM (inactive) | > 100 µM (inactive) | 62.2 µM (inactive) | 60.5 µM (inactive) |  | 23 µM (inactive) |
